“And” between values parts separate entries of the source, which are not always exact repeats. Equal entries are not always repeated. Toxic doses and inconclusive results are not listed. Cut-off read from the data, not from the text of the source: active = T/C of 150% or more; inactive = T/C below 125%.
Tested on: L1210 leukemia ip in BDF1 mice, survival T/C
Assay: NCI In Vivo Anticancer Drug Screen. Data for tumor model L1210 Leukemia (intraperitoneal) in B6D2F1 (BDF1) mice
Details: endpoint: mean survival time, higher = longer survival
How it was run: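 Tumor was transplanted into mice, which were then dosed with test compound or vehicle alone. Survival was recorded for each group, and the treated figure was expressed relative to the control figure.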

[1] = dose: 100.0 mg/kg/injection, schedule: Q01DX009 (ip), vehicle: Klucel (hydroxypropylcellulose) (HPC)
[2] = dose: 100.0 mg/kg/injection, schedule: Q04DX003 (ip), vehicle: Klucel (hydroxypropylcellulose) (HPC)
[3] = dose: 200.0 mg/kg/injection, schedule: Q01DX009 (ip), vehicle: Klucel (hydroxypropylcellulose) (HPC)
[4] = dose: 200.0 mg/kg/injection, schedule: Q04DX003 (ip), vehicle: Klucel (hydroxypropylcellulose) (HPC)
[5] = dose: 400.0 mg/kg/injection, schedule: Q01DX009 (ip), vehicle: Klucel (hydroxypropylcellulose) (HPC)
[6] = dose: 400.0 mg/kg/injection, schedule: Q04DX003 (ip), vehicle: Klucel (hydroxypropylcellulose) (HPC)
[7] = dose: 100.0 mg/kg/injection, schedule: Q01DX001 (ip), vehicle: saline
[8] = dose: 200.0 mg/kg/injection, schedule: Q01DX001 (ip), vehicle: saline
[9] = dose: 400.0 mg/kg/injection, schedule: Q01DX001 (ip), vehicle: saline
[10] = dose: 100.0 mg/kg/injection, schedule: Q01DX009 (ip), vehicle: saline
[11] = dose: 200.0 mg/kg/injection, schedule: Q01DX009 (ip), vehicle: saline

Measured: T/C

CC(=O)Nc1ccc(/C=C/c2ccc([N+](=O)[O-])cc2)cc1
inactive: [1] 100 % of control | dose: 100.0 mg/kg/injection, schedule: Q04DX002 (ip), vehicle: Klucel (hydroxypropylcellulose) (HPC) 96 % of control | [2] 100 % of control | [3] 95 % of control | dose: 200.0 mg/kg/injection, schedule: Q04DX002 (ip), vehicle: Klucel (hydroxypropylcellulose) (HPC) 93 % of control | [4] 98 % of control | [5] 92 % of control | dose: 400.0 mg/kg/injection, schedule: Q04DX002 (ip), vehicle: Klucel (hydroxypropylcellulose) (HPC) 104 % of control | [6] 107 % of control

CC1=C(C)C2(C)C1(C)C1(C)C(C)=C(C)C21C (stereo not given)
inactive: dose: 100.0 mg/kg/injection, schedule: Q01DX009 (ip), vehicle: acetone 86 % of control | dose: 200.0 mg/kg/injection, schedule: Q01DX009 (ip), vehicle: acetone 86 % of control

C/C(=C\C(C)(C)c1ccccc1)c1ccccc1 (tested in a mixture with another compound)
inactive: dose: 50.0 mg/kg/injection, schedule: Q01DX001 (ip), vehicle: saline 90 % of control | [7] 96 % of control | [8] 113 % of control | [9] 116 % of control

CCO[Si](CC)(CC)CC
inactive: [10] 100 % of control | [11] 98 % of control | dose: 400.0 mg/kg/injection, schedule: Q01DX009 (ip), vehicle: saline 102 % of control

CC1=C(C)C(=O)OC1=O
inactive: [2] 97 % of control | [4] 98 % of control

C[N+](C)(C)CCCC[N+](C)(C)C
inactive: dose: 50.0 mg/kg/injection, schedule: Q01DX009 (ip), vehicle: saline 110 % of control | [10] 100 % of control and 106 % of control | dose: 100.0 mg/kg/injection, schedule: Q04DX003 (ip), vehicle: saline 102 % of control | [11] 98 % of control and 111 % of control | dose: 200.0 mg/kg/injection, schedule: Q04DX003 (ip), vehicle: saline 100 % of control

O=C(OC1CC2CC1C1CSCC21)c1ccc([N+](=O)[O-])cc1 (stereo not given)
inactive: [1] 101 % of control | [2] 105 % of control | [3] 103 % of control | [4] 105 % of control | [5] 103 % of control | [6] 97 % of control

Cc1ccc(C2(C)CC/C(=N/N=C3/CCC(C)(c4ccc(C)c(C)c4)c4cc(C)c(C)cc43)c3cc(C)c(C)cc32)cc1C (stereo not given)
inactive: [7] 93 % of control | [8] 101 % of control | [9] 98 % of control

O=[N+]([O-])c1cc(Cl)ccc1N1CCCCC1
inactive: dose: 100.0 mg/kg/injection, schedule: Q01DX009 (ip), vehicle: saline with Tween-80 97 % of control | dose: 200.0 mg/kg/injection, schedule: Q01DX009 (ip), vehicle: saline with Tween-80 98 % of control | dose: 400.0 mg/kg/injection, schedule: Q01DX009 (ip), vehicle: saline with Tween-80 106 % of control

COc1cccc(C2NC(=O)N3C(c4cccc(OC)c4)NC(=O)N23)c1 (stereo not given)
inactive: dose: 100.0 mg/kg/injection, schedule: Q01DX009 (ip), vehicle: gum acacia 98 % of control | dose: 100.0 mg/kg/injection, schedule: Q04DX003 (ip), vehicle: gum acacia 97 % of control | dose: 200.0 mg/kg/injection, schedule: Q01DX009 (ip), vehicle: gum acacia 91 % of control | dose: 200.0 mg/kg/injection, schedule: Q04DX003 (ip), vehicle: gum acacia 95 % of control | dose: 400.0 mg/kg/injection, schedule: Q01DX009 (ip), vehicle: gum acacia 91 % of control

CC(=O)Nc1c(Cl)cc2c(c1Cl)Cc1c-2cc(Cl)c(NC(C)=O)c1Cl
inactive: dose: 100.0 mg/kg/injection, schedule: Q04DX003 (ip), vehicle: saline with Tween-80 93 % of control | dose: 200.0 mg/kg/injection, schedule: Q04DX003 (ip), vehicle: saline with Tween-80 93 % of control | dose: 400.0 mg/kg/injection, schedule: Q04DX003 (ip), vehicle: saline with Tween-80 101 % of control

C/C=C/C=N/Nc1ccccc1
inactive: dose: 50.0 mg/kg/injection, schedule: Q04DX003 (ip), vehicle: other 87 % of control | dose: 100.0 mg/kg/injection, schedule: Q01DX001 (ip), vehicle: other 97 % of control | dose: 100.0 mg/kg/injection, schedule: Q04DX003 (ip), vehicle: other 92 % of control | dose: 200.0 mg/kg/injection, schedule: Q01DX001 (ip), vehicle: other 90 % of control | dose: 200.0 mg/kg/injection, schedule: Q04DX003 (ip), vehicle: other 93 % of control
